Measurements as given in patent US20190048342A1, “CROSS-REGULATION OF TYPE I INTERFERON SIGNALING PATHWAYS” (THE METHODIST HOSPITAL SYSTEM, priority 2016, published 2019).

Tests used:
RNA polymerase III = assay: IFN-β mRNA in RAW264.7 cells after P. yoelii YM gDNA stimulation, with RNA polymerase III knockdown or inhibition; assay type: cell-based; details: siRNA 48 h or ML60218 pretreatment 24 h, then P. yoelii YM gDNA stimulation 6 h
Description: FIGS. 10A to 10G show type I IFN gene expression after P. yoelii YM gDNA or RNA stimulation and WT mice serum cytokine level after P. yoelii YM infection. […] Data are plotted as the mean±s.d. and are representative of three independent experiments. *P<0.05, **P<0.01, ***P<0.001 vs. corresponding control. ND, not detected; NS, not significant.
To understand the molecular mechanisms by which mice deficient in the cGAS, Sting, Mda5, or Mavs gene were resistant to P. yoelii YM infection, experiments were conducted to determine whether cGAS and MDA5 function as DNA/RNA sensors for detecting P. yoelii YM gDNAs or RNAs (FIG. 2a). Both purified P. yoelii YM gDNA and RNA could induce IFN-β mRNA expression in RAW264.7 cells (FIG. 2b). The ability of P. yoelii YM gDNA to induce type I IFN response was completely abolished upon DNase, but not RNase, treatment (FIG. 10a). Similarly, the stimulating activity of parasite RNA was abolished after treatment with RNase, but not DNase (FIG. 10a), which is in agreement with other studies showing that malaria RNA can be detected by MDA5 sensor (Liehl, P. et al. Nat Med 20:47-53 (2014); Wu, J. et al. Proc Natl Acad Sci USA 111:E511-520 (2014)). […]

P. yoelii YM [1] = assay: Serum cytokine levels (ELISA) in mice after P. yoelii YM infection; assay type: in vivo, mouse
Procedure: (§1) The parasite Plasmodium yoelii YM, N67C and N67 have been previously described (Li, J. et al. Proc Natl Acad Sci USA 108:E374-382 (2011)). For plasmodium infection, 0.2 (low) or 2×10^6 iRBCs (otherwise, indicated specifically in the figure legend) suspended in 200 μl PBS from the donor mice were intraperitoneally injected into experimental mice. A higher parasite dose (1×10^7 iRBCs) was used in some experiments. Parasitemias were monitored daily by examination of Giemsa-stained thin tail blood smears. Female mice C57BL/6 (WT), Mavs^−/−, Mda5^−/−, Myd88^−/−, Sting^−/−, Trif^−/−, BDCA2-DTR, Tlr2^−/−, Tlr3^−/−, and Tlr4^−/− mice were purchased from The Jackson Laboratory. Tlr9^−/− mice, Tlr7^−/−, Rig-I^−/− mice, Irf3^−/−:Irf7^−/− mice, and cGAS^−/− mice were obtained. All mouse-related procedures were performed according to experimental protocols approved by the Animal Care and Welfare Committee at Houston Methodist Research Institute and in accordance with NIH-approved animal study protocol LMVR-11E.
(§2) To deplete pDCs, pDC-depleting functional-grade mAb (anti-mPDCA-1 IgG, clone JF05-1C2.4.1) and the corresponding isotype control IgG, which served as control, were purchased from Miltenyi Biotec (Auburn, Calif.). Two intraperitoneal injections of antibody (250 μg/mouse) per mouse were administered 12 h prior and after YM infection.
Mouse splenocytes were prepared from spleens cut into small fragments and digested with collagenase D (1 mg/ml, Sigma) and DNAse I (20 μg/ml, Sigma) in RPMI-1640 medium for 30 min. […] Cells were analyzed using the BD FACS Aria II. […]
In Vivo Ready siRNAs were mixed with Invivofectamine 3.0 liposomes (Invitrogen) following the manufacturer's instructions and injected intravenously in a volume of 100 μl at a dose of 5 mg/kg. […]
The parasite Plasmodium yoelii YM and Plasmodium yoelii N67C have been previously described (Wu, J. et al. Proc Natl Acad Sci USA 111:E511-520 (2014); Li, J. et al. Proc Natl Acad Sci USA 108:E374-382 (2011)). […] Parasitemias were monitored daily by examination of Giemsa-stained thin tail blood smears. […]

P. yoelii YM [2] = assay: Daily parasitemia and mortality of mice after P. yoelii YM infection; assay type: in vivo, mouse
Procedure: as §1, §2
In Vivo Ready siRNAs were mixed with Invivofectamine 3.0 liposomes (Invitrogen) following the manufacturer's instructions and injected intravenously in a volume of 100 μl at a dose of 5 mg/kg. Mice were infected with P. yoelii YM (0.5×10^6 iRBCs) 48 h after siRNA treatment.
Deficient (Mda5^−/−, Mavs^−/−, and Sting^−/−) mice were crossed with BDCA2-DTR transgenic mice and treated with diphtheria toxin (DT, Sigma-Aldrich) intraperitoneally (i.p.) at a dose of 100-120 ng/mouse. pDCs were depleted by DT injection at 1 day before and 1, 3, and 5 days after P. yoelii YM infection.
The parasite Plasmodium yoelii YM and Plasmodium yoelii N67C have been previously described (Wu, J. et al. Proc Natl Acad Sci USA 111:E511-520 (2014); Li, J. et al. Proc Natl Acad Sci USA 108:E374-382 (2011)). For plasmodium infection, 0.2 (low) or 2×10^6 iRBCs (otherwise, indicated specifically in the figure legend) suspended in 200 μl PBS from the donor mice were intraperitoneally injected into experimental mice. Parasitemias were monitored daily by examination of Giemsa-stained thin tail blood smears. Female mice C57BL/6 (WT), Mavs^−/−, Mda5^−/−, Sting^−/−, BDCA2-DTR, zDC-DTR, Ifnar^−/−, and Rag2^−/− mice were purchased from The Jackson Laboratory. All mouse-related procedures were performed according to experimental protocols approved by the Animal Care and Welfare Committee at Houston Methodist Research Institute and in accordance with NIH-approved animal study protocol LMVR-11E.
To block type I IFN receptor, anti-mouse interferon α/β receptor antibodies (Leinco Technologies), in the amount of 500 μg in PBS at day 0, 2, 4, and 250 μg at day 6 after infection (or indicated specifically in the figure legend), were intraperitoneally injected into WT and deficient mice. Mouse IgG antibody was used as control, and parasitemias were monitored by daily Giemsa-stained blood smears. To test the role of type I IFN cytokines, C57BL/6 mice were first infected with P. yoelii YM, and then intravenously injected with 800 U/g mouse recombinant IFN-α and IFN-β, recombinant IL-6, or recombinant IFN-γ at the indicated time points. Bovine serum albumin (BSA, 0.1%) in PBS served as a control, and parasitemias were monitored by daily Giemsa-stained blood smears. To deplete pDCs, pDC-depleting functional-grade mAb (anti-mPDCA-1 IgG, clone JF05-1C2.4.1) was purchased from Miltenyi Biotec (Auburn, Calif.), and the corresponding isotype control IgG served as control. Two intraperitoneally injections of antibody (250 μg/mouse) per mouse were administered 12 h prior and after plasmodium YM infection or indicated specifically in the figure legend. […]

P. berghei ANKA = details: previous studies; cited from earlier work
[3] = Sting-/- mice, macrophage depletion at one day post infection, vs liposome control or treatment two days before
[4] = Mavs-/-:zDC-DTR mice, DT after 24 h of infection, vs untreated or DT four days before
[5] = WT mice, recombinant cytokine i.v. at 18 h post YM infection

Question: With Cc1c(-c2cc(NS(=O)(=O)c3ccccc3Cl)n(C)n2)sc2ccc(Cl)cc12 [ML60218] as the molecule, how does the “IFN-β mRNA expression” value (RNA polymerase III) read?
Answer: The value was “markedly inhibited”.

Question: Which “serum levels of IFN-α and IFN-β” value (P. yoelii YM [1]; Sting-/- mice, macrophage depletion two days before or one day after YM infection) does the source give for O=P(O)(O)C(Cl)(Cl)P(=O)(O)O [clodronate] here?
Answer: The value was “did not affect”.

Question: What about the host mortality (P. yoelii YM [2]; [3]) of the same molecule?
Answer: The host mortality was “markedly increased parasitemia and host mortality”.

Question: And the parasitemia (P. yoelii YM [2]; [3])?
Answer: Its parasitemia is “markedly increased parasitemia and host mortality”.

Question: For diphtheria toxin [DT], which “serum IFN-α and IFN-β” value (P. yoelii YM [1]; Mavs-/-:BDCA2-DTR mice treated with DT vs Mavs-/- mice treated with DT, 24 h after infection) is on record?
Answer: The value was “markedly reduced”.

Question: And the “serum levels of IFN-α and IFN-β” value (P. yoelii YM [1]; Mavs-/-:zDC-DTR chimeric mice, DT four days before or one day post infection)?
Answer: The value was “no change”.

Question: And the “sensitivity to P. yoelii YM infection based on parasitemia and survival” value (P. yoelii YM [2]; DT-treated Mavs-/-:BDCA2-DTR mice vs DT-treated Mavs-/- mice)?
Answer: The value was “sensitive to P. yoelii YM infection”.

Question: And the parasitemia (P. yoelii YM [2]; [4])?
Answer: The parasitemia was “increased parasitemia”.

Question: What about the time of death (P. yoelii YM [2]; [4]) of the same molecule?
Answer: The time of death was “died sooner”.

Question: Which “protection of mice from ANKA infection” value (P. berghei ANKA) does the source give for “murine IFN-β: murine IFN-β of previous studies” here?
Answer: The value was “protect”.

B1: IFN-γ: recombinant IFN-γ injected intravenously (protein, UniProt P01580 23-155, looked up)
Interferon gamma: HGTVIESLESLNNYFNSSGIDVEEKSLFLDIWRNWQKDGDMKILQSQIISFYLRLFEVLKDNQAISNNISVIESHLITTFFSNSKAKKDAFMSIAKFEVNNPQVQRQAFNELIRVVHQLLPESSLRKRKRSRC
Question: Which host mortality (P. yoelii YM [2]; [5]) does the source give for B1 here?
Answer: The host mortality was “failed to do so”.

Question: And the parasitemia (P. yoelii YM [2]; [5])?
Answer: Its parasitemia is “slightly increased”.

B2: IL-6: recombinant IL-6 injected intravenously (protein, UniProt P08505 25-211, looked up)
Interleukin-6: FPTSQVRRGDFTEDTTPNRPVYTTSQVGGLITHVLWEIVEMRKELCNGNSDCMNNDDALAENNLKLPEIQRNDGCYQTGYNQEICLLKISSGLLEYHSYLEYMKNNLKDNKKDKARVLQRDTETLIHIFNQEVKDLHKIVLPTPISNALLTDKLESQKEWLRTKTIQFILKSLEEFLKVTLRSTRQT
Question: What does the source list for B2?
Answer: host mortality (P. yoelii YM [2]; [5]): failed to do so; parasitemia (P. yoelii YM [2]; [5]): failed to do so
